Measured values from the NIST ThermoML archive (doi:10.1016/j.tca.2004.12.008).

Test: mn = molality of the nth substance listed, in mol/kg
Details: 101.3 kPa, Liquid, Vibrating tube method

NCC(=O)NCC(=O)O [glycylglycine] + O
mass density [kg/m3]
Details | m1 = 0.0949 | m1 = 0.2052 | m1 = 0.2997 | m1 = 0.4062 | m1 = 0.5069
298.15 K | 1002.54 | 1008.5 | 1013.49 | 1018.99 | 1024.06
308.15 K | 999.21 | 1005.1 | 1010.03 | 1015.47 | 1020.5
